The assay has as its target MAPKAP-K2 (Homo sapiens, UniProt P49137). Kind of assay: MAPKAP-K2 enzyme activity inhibition assay, Method A (33P-ATP, P81 filter plate). It is filed as biochemical. The conditions noted are these: 10 μmol/L ATP, 30 μmol/L peptide KKLNRTLSVA, 3% DMSO, 30 min room temperature, read-out: Inhibitory activity (MAPKAP-K2 IC50 class). As to the method: The assay of inhibitory activity was performed according to Method A described below for Compound No. 1, 2, 3, 4, 20, 21, 22, 23, 24, 25, 26, 79, 80 and 81, and Method B described below for the other compounds.
A compound was dissolved in DMSO to make its concentration to 10 mmol/L, and further a part of the resulting solution was taken out and stored at −20° C. The stock solution was diluted with DMSO to prepare a stock solution having a 30-fold concentration of the required range. Subsequently the resultant stock solution was diluted to 1:3 to prepare a stock solution having a 10-fold concentration of the required range, and an aliquot of 5 μL of each solution was used for every reaction with 50 μL. During the continuous dilution of all compounds, the final DMSO concentration was maintained at 3% and the solubility of compounds was maximized. Compounds were routinely tested at a final concentration ranging from 300 μmol/L to 0.001 μmol/L, but were sometimes tested at a lower concentration depending upon their activity. (MAPKAP-K2 Enzyme Activity Assay)
The kinase reaction was carried out using a 96-well round-bottomed polypropylene microplate. MAPKAP-Kinase 2 was diluted to 0.5 mU/μL with diluent buffer (50 mmol/L Tris/HCl (pH7.5), 0.1 mmol/L EGTA, 0.1% (v/v) β-mercaptoethanol, and 1 mg/mL BSA). To each well was added 5 μL of a compound or 30% DMSO and subsequently 25 μL of substrate cocktail (final concentration: 10 μmol/L ATP, 30 μmol/L peptide (KKLNRTLSVA), 50 mmol/L 33P-γ-ATP/Tris solution of (pH 7.5, 0.5 μCi), 0.1 mmol/L EGTA, 10 mmol/L magnesium acetate and 0.1% β-mercaptoethanol). To each well was added 20 μL of an enzyme solution or 20 μL of a diluent buffer without contabing enzyme to initiate the reaction, After shaking the plate for 10 sec, it was fibber allowed to stand at room temperature for 30 min. The reaction was terminated with 50 μL of a 150 mmol/L phosphoric acid solution. Then, 90 μL of a reaction mixture solution was transferred to a 96-well P81 filter plate (Whatmann), and incubation was performed at room temperature for 5 min. Subsequently, the filter plate was washed 4 times with 200 μL of a 75 mmol/L phosphoric acid solution per well through a plate suction manifold (Millipore), followed by further drying in an oven for 2 to 3 hrs. Next, after adding Packard Microscint “0” (30 μL) to each well and shaking the plate for 30 min, scintillation measurement was performed using a Packard TopCount scintillation counter. […]

Among the data in patent US7667036B2, “Pyrazolo[1,5-a]pyrimidine derivatives” (Teijin Pharma Limited, priority 2004, dated 2010) are IC50 values, retold here.

MAPKAP-K2, sequence (P49137 whole entry): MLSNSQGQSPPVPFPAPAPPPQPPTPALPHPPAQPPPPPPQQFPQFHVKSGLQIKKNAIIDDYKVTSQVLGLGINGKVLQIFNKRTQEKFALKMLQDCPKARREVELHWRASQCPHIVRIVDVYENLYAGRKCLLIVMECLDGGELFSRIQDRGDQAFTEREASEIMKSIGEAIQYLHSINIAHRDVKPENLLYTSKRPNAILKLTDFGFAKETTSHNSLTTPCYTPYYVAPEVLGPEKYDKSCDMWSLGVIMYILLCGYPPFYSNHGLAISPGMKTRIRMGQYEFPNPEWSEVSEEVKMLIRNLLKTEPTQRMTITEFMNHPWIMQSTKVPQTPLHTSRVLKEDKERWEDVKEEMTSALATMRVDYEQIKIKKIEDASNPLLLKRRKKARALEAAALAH

On to `C=CCC1CC(N)CCC1Oc1nc2ccnn2c(Nc2ccc(OCC)cc2)c1C` (stereo not shown) [compound 25], for which the IC50 was 2 to 20 µM. As for `C=CCC1CC(NC)CCC1Oc1nc2ccnn2c(Nc2ccc(OCC)cc2)c1C` (stereo not shown) [compound 26], the concentration for half-maximal inhibition (IC50) fell in the range of 2 to 20 µM. With `CCOc1ccc(Nc2c(C)c(SC3CCCNC3)nc3ccnn23)cc1` (stereo not shown) [compound 80] the figure was 2 to 20 µM. The same measure for `CCOc1ccc(Nc2c(C)c(SCCN)nc3ccnn23)cc1` [compound 81]: 2 to 20 µM.

One may read the IC50 as the concentration that gives 50% inhibition.
